Measurements: patent publication US20210283073A1, “AGENT FOR INHIBITING RECURRENCE OF HEM[…] PATIENTS WHO HAVE UNDERGONE HEMATOPOIETIC STEM CELL TRANSPLANTATION” (Priothera Limited, priority 2018, published 2021)
Read-outs that look alike come from different tables or passages of the source.

System: patients who have undergone hematopoietic stem cell transplantation for the treatment of hematological malignancies
Settings: for number of days of recurrence of hematological malignancies / number of days of death: days from allogeneic HSCT; for Recurrence rate / Survival rate: one year after allogeneic HSCT
Procedure: The clinical tests were performed as described below
The following four types of immunosuppressants were used in the clinical tests. • 2-Amino-2-[4-(3-benzyloxyphenylthio)-2-chlorophenyl] ethyl-propane-1,3-diol hydrochloride (prepared as capsules containing 0.5, 1, 2, 3, 4, or 5 mg in terms of 2-amino-2-[4-(3-benzyloxyphenylthio)-2-chlorophenyl] ethyl-propane-1,3-diol)) • Methotrexate • Cyclosporin A • Tacrolimus
23 patients participated in the clinical tests.
The clinical tests was carried out according to the following schedule. However, changes were made appropriately depending on the condition of the patient and the like.
A: Screening (from the −50th day to the −2nd day), Baseline (the −1st day)
B: Treatment with 2-amino-2-[4-(3-benzyloxyphenylthio)-2-chlorophenyl] ethyl-propane-1,3-diol hydrochloride (from the 1st day to the 111th day)
B′: Treatment with other immunosuppressants (according to hospital standards, and the like)
C: Conditioning regimen (from the 2nd day to the 10th day)
D: Allogeneic hematopoietic stem cell transplantation (the 11th day)
E: Follow-up (from the 12th day to the 376th day), additional follow-up (from the 377th day)
A predetermined amount of 2-amino-2-[4-(3-benzyloxyphenylthio)-2-chlorophenyl] ethyl-propane-1,3-diol hydrochloride was administered to the patients once a day, as well as, other immunosuppressants were administered to the patients on a dosing schedule and dosage according to the hospital standards and the like. The daily dosage of 2-amino-2-[4-(3-benzyloxyphenylthio)-2-chlorophenyl] ethyl-propane-1,3-diol hydrochloride administered to each patient (value in terms of 2-amino-2-[4-(3-benzyloxyphenylthio)-2-chlorophenyl] ethyl-propane-1,3-diol, the same is applied to the descriptions hereinafter), the administration period of time, and the types of the other immunosuppressants are shown in Table 2 (KRP: 2-amino-2-[4-(3-benzyloxyphenylthio)-2-chlorophenyl] ethyl-propane-1,3-diol hydrochloride, MTX: methotrexate, CyA: cyclosporin A, and Tac: tacrolimus).
The conditions of patients who underwent allogeneic hematopoietic stem cell transplantation were subjected to following up for a certain period of time. In the table, the follow-up period, the number of days of recurrence of hematological malignancies and the number of days of death represent the number of days passing from the day when allogeneic hematopoietic stem cell transplantation was performed. The survival rate and recurrence rate were calculated in accordance with the Kaplan-Meier method.

[1] = Patient No. 1, Multiple myeloma, KRP 3 mg + MTX + CyA, KRP 34 days, follow-up 749 days
[2] = Patient No. 2, Acute lymphocytic leukemia, KRP 3 mg + MTX + CyA, KRP 108 days, follow-up 731 days
[3] = Patient No. 3, Acute lymphocytic leukemia, KRP 3 mg + MTX + CyA, KRP 107 days, follow-up 734 days
[4] = Patient No. 4, Myelodysplasia syndrome, KRP 3 mg + MTX + CyA, KRP 35 days, follow-up 532 days
[5] = Patient No. 4, Myelodysplasia syndrome, KRP 3 mg + MTX + CyA, KRP 35 days
[6] = Patient No. 5, B-cell lymphoma, KRP 3 mg + MTX + CyA, KRP 111 days, follow-up 819 days
[7] = Patient No. 6, Acute myeloid leukemia, KRP 3 mg + MTX + CyA, KRP 107 days, follow-up 347 days
[8] = Patient No. 7, Acute lymphocytic leukemia, KRP 3 mg + MTX + CyA, KRP 98 days, follow-up 727 days
[9] = Patient No. 8, Myelodysplasia syndrome, KRP 3 mg + MTX + CyA, KRP 111 days, follow-up 704 days
[10] = Patient No. 9, Acute myeloid leukemia, KRP 3 mg + MTX + CyA, KRP 86 days, follow-up 728 days
[11] = Patient No. 10, Acute myeloid leukemia, KRP 3 mg + MTX + CyA, KRP 111 days, follow-up 876 days
[12] = Patient No. 10, Acute myeloid leukemia, KRP 3 mg + MTX + CyA, KRP 111 days
[13] = Patient No. 11, Chronic myeloid leukemia, KRP 1 mg + MTX + CyA, KRP 111 days, follow-up 617 days
[14] = Patient No. 12, Myelodysplasia syndrome, KRP 3 mg + MTX + Tac, KRP 79 days, follow-up 110 days
[15] = Patient No. 12, Myelodysplasia syndrome, KRP 3 mg + MTX + Tac, KRP 79 days
[16] = Patient No. 13, Acute lymphocytic leukemia, KRP 1 mg + MTX + CyA, KRP 43 days, follow-up 326 days
[17] = Patient No. 13, Acute lymphocytic leukemia, KRP 1 mg + MTX + CyA, KRP 43 days
[18] = Patient No. 14, Acute myeloid leukemia, KRP 1 mg + MTX + CyA, KRP 111 days, follow-up 669 days
[19] = Patient No. 15, Chronic myeloid leukemia, KRP 3 mg + MTX + Tac, KRP 111 days, follow-up 554 days
[20] = Patient No. 16, Acute myeloid leukemia, KRP 3 mg + MTX + Tac, KRP 117 days, follow-up 375 days
[21] = Patient No. 17, Acute myeloid leukemia, KRP 3 mg + MTX + Tac, KRP 111 days, follow-up 246 days
[22] = Patient No. 18, Myelofibrosis, KRP 3 mg + MTX + Tac, KRP 111 days, follow-up 310 days
[23] = Patient No. 18, Myelofibrosis, KRP 3 mg + MTX + Tac, KRP 111 days
[24] = Patient No. 19, Acute myeloid leukemia, KRP 1 mg + MTX + CyA, KRP 24 days, follow-up 99 days
[25] = Patient No. 20, Chronic myeloid leukemia, KRP 1 mg + MTX + CyA, KRP 111 days, follow-up 193 days
[26] = Patient No. 21, Non-hodgkin lymphoma/Hodgkin disease, KRP 3 mg + MTX + Tac, KRP 62 days, follow-up 79 days
[27] = Patient No. 21, Non-hodgkin lymphoma/Hodgkin disease, KRP 3 mg + MTX + Tac, KRP 62 days
[28] = Patient No. 22, Non-hodgkin lymphoma/Hodgkin disease, KRP 3 mg + MTX + Tac, KRP 107 days, follow-up 264 days
[29] = Patient No. 22, Non-hodgkin lymphoma/Hodgkin disease, KRP 3 mg + MTX + Tac, KRP 107 days
[30] = Patient No. 23, Chronic myeloid leukemia, KRP 1 mg + MTX + CyA, KRP 111 days, follow-up 264 days
[31] = all 23 patients, KRP 1 or 3 mg/day + MTX + CyA or Tac, Kaplan-Meier
[32] = Chronic myeloid leukemia, 4 patients
[33] = KRP 1 mg + MTX + CyA, 6 patients
[34] = KRP 3 mg + MTX + CyA, 10 patients, hydrochloride
[35] = KRP 3 mg + MTX + CyA, 10 patients, listed as 2-amino-2-[4-(3-benzyloxyphenylthio)-2-chlorophenyl] ethyl-propane-1,3-diol, hydrochloride
[36] = KRP 3 mg + MTX + Tac, 7 patients
[37] = Myelodysplasia syndrome, 3 patients
[38] = Non-hodgkin lymphoma/Hodgkin disease, 2 patients
[39] = administration period 80 days or more, 17 patients, hydrochloride
[40] = administration period 80 days or more, 17 patients, listed as 2-amino-2-[4-(3-benzyloxyphenylthio)-2-chlorophenyl] ethyl-propane-1,3-diol, hydrochloride
[41] = administration period 100 days or more, 15 patients, hydrochloride
[42] = administration period 100 days or more, 15 patients, listed as 2-amino-2-[4-(3-benzyloxyphenylthio)-2-chlorophenyl] ethyl-propane-1,3-diol, hydrochloride

## Cl.NC(CO)(CO)CCc1ccc(Sc2cccc(OCc3ccccc3)c2)cc1Cl [KRP, 2-amino-2-[4-(3-benzyloxyphenylthio)-2-chlorophenyl] ethyl-propane-1,3-diol hydrochloride]
[1]
  Alive/dead: Alive
  Yes/No of recurrence of hematological malignancy: Yes
Patient No. 1, Multiple myeloma, KRP 3 mg + MTX + CyA, KRP 34 days
  number of days of recurrence of hematological malignancies: (749th day)
[2]
  Alive/dead: Alive
  Yes/No of recurrence of hematological malignancy: No
[3]
  Alive/dead: Alive
  Yes/No of recurrence of hematological malignancy: No
[4]
  Alive/dead: Dead
  Yes/No of recurrence of hematological malignancy: Yes
[5]
  number of days of death: (532nd day)
  number of days of recurrence of hematological malignancies: (287th day)
[6]
  Alive/dead: Alive
  Yes/No of recurrence of hematological malignancy: No
[7]
  Alive/dead: Alive
  Yes/No of recurrence of hematological malignancy: No
[8]
  Alive/dead: Alive
  Yes/No of recurrence of hematological malignancy: No
[9]
  Alive/dead: Alive
  Yes/No of recurrence of hematological malignancy: No
[10]
  Alive/dead: Alive
  Yes/No of recurrence of hematological malignancy: Yes
Patient No. 9, Acute myeloid leukemia, KRP 3 mg + MTX + CyA, KRP 86 days
  number of days of recurrence of hematological malignancies: (102nd day)
[11]
  Alive/dead: Dead
  Yes/No of recurrence of hematological malignancy: Yes
[12]
  number of days of death: (876th day)
  number of days of recurrence of hematological malignancies: (757th day)
[13]
  Alive/dead: Alive
  Yes/No of recurrence of hematological malignancy: No
[14]
  Alive/dead: Dead
  Yes/No of recurrence of hematological malignancy: Yes
[15]
  number of days of death: (110th day)
  number of days of recurrence of hematological malignancies: (110th day)
[16]
  Alive/dead: Dead
  Yes/No of recurrence of hematological malignancy: Yes
[17]
  number of days of death: (326th day)
  number of days of recurrence of hematological malignancies: (252nd day)
[18]
  Alive/dead: Alive
  Yes/No of recurrence of hematological malignancy: No
[19]
  Alive/dead: Alive
  Yes/No of recurrence of hematological malignancy: No
[20]
  Alive/dead: Alive
  Yes/No of recurrence of hematological malignancy: No
[21]
  Alive/dead: Alive
  Yes/No of recurrence of hematological malignancy: Yes
Patient No. 17, Acute myeloid leukemia, KRP 3 mg + MTX + Tac, KRP 111 days
  number of days of recurrence of hematological malignancies: (98th day)
[22]
  Alive/dead: Dead
  Yes/No of recurrence of hematological malignancy: Yes
[23]
  number of days of death: (310th day
  number of days of recurrence of hematological malignancies: (105th day)
[24]
  Alive/dead: Alive
  Yes/No of recurrence of hematological malignancy: Yes
Patient No. 19, Acute myeloid leukemia, KRP 1 mg + MTX + CyA, KRP 24 days
  number of days of recurrence of hematological malignancies: (77th day)
[25]
  Alive/dead: Alive
  Yes/No of recurrence of hematological malignancy: No
[26]
  Alive/dead: Dead
  Yes/No of recurrence of hematological malignancy: Yes
[27]
  number of days of death: (79th day
  number of days of recurrence of hematological malignancies: (49th day)
[28]
  Alive/dead: Dead
  Yes/No of recurrence of hematological malignancy: Yes
[29]
  number of days of death: (264th day
  number of days of recurrence of hematological malignancies: (121st day)
[30]
  Alive/dead: Alive
  Yes/No of recurrence of hematological malignancy: No
[31]
  recurrence rate of hematologic malignancy one year after allogeneic hematopoietic stem cell transplantation: 40%
  survival rate of the patients one year after allogeneic hematopoietic stem cell transplantation: 75%
Acute lymphocytic leukemia, 4 patients
  Recurrence rate: 25%
Acute lymphocytic leukemia, 4 patients, hydrochloride
  Survival rate: 75%
Acute lymphocytic leukemia, 4 patients, listed as 2-amino-2-[4-(3-benzyloxyphenylthio)-2-chlorophenyl] ethyl-propane-1,3-diol, hydrochloride
  Survival rate: 75%
Acute myeloid leukemia, 7 patients
  Recurrence rate: 43%
Acute myeloid leukemia, 7 patients, hydrochloride
  Survival rate: 100%
Acute myeloid leukemia, 7 patients, listed as 2-amino-2-[4-(3-benzyloxyphenylthio)-2-chlorophenyl] ethyl-propane-1,3-diol, hydrochloride
  Survival rate: 100%
B-cell lymphoma, 1 patient
  Recurrence rate: 0%
  Survival rate: 100%
[32]
  Recurrence rate: 0%
  Survival rate: 100%
[33]
  Recurrence rate: 38%
  Survival rate: 67%
[34]
  Recurrence rate: 20%
  Survival rate: 100%
[35]
  Recurrence rate: 20%
  Survival rate: 100%
[36]
  Recurrence rate: 71%
  Survival rate: 36%
Multiple myeloma, 1 patient
  Recurrence rate: 0%
  Survival rate: 100%
[37]
  Recurrence rate: 67%
  Survival rate: 67%
Myelofibrosis, 1 patient
  Recurrence rate: 100%
  Survival rate: 0%
[38]
  Recurrence rate: 100%
  Survival rate: 0%
Administration period 60 days or more, 19 patients
  Recurrence rate: 32%
Administration period 60 days or more, 19 patients, hydrochloride
  Survival rate: 77%
Administration period 60 days or more, 19 patients, listed as 2-amino-2-[4-(3-benzyloxyphenylthio)-2-chlorophenyl] ethyl-propane-1,3-diol, hydrochloride
  Survival rate: 77%
[39]
  Recurrence rate: 24%
  Survival rate: 86%
[40]
  Recurrence rate: 24%
  Survival rate: 86%
[41]
  Recurrence rate: 20%
  Survival rate: 84%
[42]
  Recurrence rate: 20%
  Survival rate: 84%
